Legend:
[1] = tested on: cGAS-STING-Type I IFN pathway; assay: Inhibition of DNA/lipofectamine-induced IFN-I response in THP 1 dual-KI-hSTING WT(R232) reporter cells; format: cell-based, human; conditions: DNA/lipofectamine complex challenging, ISRE induced luminescence
Source text: (§1) FIG. 18: Chelating metal ions to inhibit cGAS-STING-Type I IFN pathway. a) Molecular structure of representative chelators that could inhibit cGAS-STING-Type I IFN pathway. b-c) Dose-inhibition curves of the IFN-I response (b) and NF-kB inflammation response (c) by the indicated compounds in DNA/lipofectamine 2000 (ThermoFisher, 11668027) treated THP 1 dual-KI-hSTING^WT(R232) reporter cells (Invivogen, thpd-r232). d) Cellular viability of b-c. e) Dose-inhibition curves of the IFN-I response by the indicated compounds in DNA/lipofectamine 2000 (ThermoFisher, 11668027) treated THP 1-ISG hSTING^HAQ reporter cells (Invivogen, thp-isg). […]
(§2) Given the interesting function of metal ions on modulating innate immune response in our finding, we further evaluated whether chelating metal ions could inhibit the according innate immune pathways, which may be used to treat autoimmune diseases, such as Systemic lupus erythematosus, Aicardi-Goutières syndrome, Acute pancreatitis Age-dependent macular degeneration, Alcoholic liver disease, Liver fibrosis, Metastasis, Myocardial infarction, Nonalcoholic steatohepatitis (NASH), Parkinson's disease, Polyarthritis/fetal and neonatal anemia, Sepsis, inflammatory bowel disease, multiple sclerosis, etc. […] By a ISRE induced luminescence, we could read the degree of inhibition. […]

[2] = tested on: THP 1 dual-KI-hSTING^WT(R232) reporter cells; assay: Cellular viability of chelator-treated THP 1 dual-KI-hSTING WT(R232) reporter cells; format: cell-based, human
Source text: as §1, §2

[3] = tested on: CT26 colon cancer cells; assay: CT26 colon tumor model, metal ion plus STING agonist CDA, intratumoral; format: in vivo, Balb/c mice; conditions: CT26 tumor-bearing mice
Method: FIG. 6: Enhanced STING activation and cancer therapy efficacy by Co^2+ and Mn^2+ in vivo. a) individual tumor growth curve after three dose of intratumor injection of the indicated formulation at day 9, 12, 15 after tumor inoculation. b) Serum IFN-beta concentration 8 h after the 1st dose of the indicated formulation. c-d) individual tumor growth (c) and survival (d) of the tumor bearing mice after treated with the indicated formulations.
FIG. 7: Enhanced STING activation by Co^2+ and Mn^2+ led to improved antigen specific immune response after in vivo. a) the percentage of AH1-specific CD8+ T cells among PBMC on day 16. b) IFN-γ secreting cells counts per 5E4 PBMCs after stimulation with AH1 peptides at day 22. c-e) timeline (c). tumor growth curve (d) and AH1-specific CD8+ T cells percentage in spleen CD8+ T cells (e) in tumor re-challenging study starting from day 81. […]
We examined whether the enhanced type-I IFN response in vitro could benefit cancer treatment in vivo. We evaluated the combination of metal ions and STING agonist in a murine tumor model.
To study the mechanisms of action for the improved cancer therapy efficacy, we evaluated the treated animals for antigen-specific T cell responses and performed tumor re-challenging study after 81 days of the initial treatment.

[4] = tested on: CT26 colon cancer cells
Method: When tumor size reach ˜60 mm^3, 2 doses of 25 μg/dose cdAMP(ps)2 were administrated intra-tumorally on days 10 and 15. To evaluate antigen-specific immune responses, PBMCs were collected for tetramer staining on day 17 and ELISPOT analysis with AH1 antigen peptides on day 22.
Female Balb/c mice of age 6-8 weeks (Jackson Laboratories) were inoculated with 1×10^5 CT26 colon cancer cells. When tumor size achieved ˜100 mm^3, 2 doses of 25 μg cdAMP(ps)2 in different formulations were administrated via intra-tumoral route on day 10 and day 15. Tumor size and survival were monitored every 2 or 3 days. Tumor size was calculated based on equation: volume=length×width^2×0.5. Animals were euthanized when the tumor reached 1.5 cm in diameter or when animals became moribund with severe weight loss or ulceration. At day 17, the percentages of tumor antigen-specific CD8α+ T cells among PBMC were analyzed using the tetramer staining assay as described previously with peptide-MHC tetramer (H-2Kb-restricted AH1) (the NIH Tetramer Core Facility, Atlanta, GA). On day 22, ELISPOT assay was performed with PBMC from the treated mice as described previously.
We also evaluated a subset of the formulations mentioned above in tumor-bearing mice. When tumor size reached ˜60 mm^3, 2 doses of indicated formulation with 25 μg/dose adAMP(ps)2 were administrated intratumorally on days 10 and 15.

| Compound | IC50 of DNA-induced Type I IFN response [1] | tolerability in in-vitro assay (cellular viability) [2] | survival rate [3] [%] | AH1 antigen-specific T cell response (ELISPOT) ([4]; PBMC, day 22, seven days after the 2nd dose) | complete tumor regression ([4]; number of mice out of 5) |
| --- | --- | --- | --- | --- | --- |
| O=C1O[C@H]2[C@@H]3OC(=O)c4cc(O)c(O)c(O)c4-c4c(O)c(O)c5oc(=O)c6c(c(O)c(O)c7oc(=O)c4c5c76)-c4c(cc(O)c(O)c4O)C(=O)OC[C@H]3OC(O)[C@@H]2OC(=O)c2cc(O)c(O)c(O)c2-c2c1cc(O)c(O)c2O (mixture of isomers) [Punicalagin] | as low as nanomolar level | well-tolerated |  |  |  |
| Nc1ncnc2c1ncn2[C@@H]1O[C@@H]2COP(=O)(O)O[C@H]3[C@@H](O)[C@H](n4cnc5c(N)ncnc54)O[C@@H]3COP(=O)(O)O[C@H]2[C@H]1O [free CDA] |  |  | 20 |  |  |
| O=C(OC[C@H]1O[C@@H](OC(=O)c2cc(O)c(O)c(OC(=O)c3cc(O)c(O)c(O)c3)c2)[C@H](OC(=O)c2cc(O)c(O)c(OC(=O)c3cc(O)c(O)c(O)c3)c2)[C@@H](OC(=O)c2cc(O)c(O)c(OC(=O)c3cc(O)c(O)c(O)c3)c2)[C@@H]1OC(=O)c1cc(O)c(O)c(OC(=O)c2cc(O)c(O)c(O)c2)c1)c1cc(O)c(O)c(OC(=O)c2cc(O)c(O)c(O)c2)c1 [tannin acid] | as low as nanomolar level | well-tolerated |  |  |  |
| cdAMP(ps)2 [free CDN] |  |  |  | significant | 2 out of 5 |

— patent US12622922B2, “Compositions and methods for metal containing formulations capable of modulating immune response” (The Regents of the University of Michigan, priority 2018, dated 2026)
